Source: paper PMC4669722, “Antitumour potential of BPT: a dual inhibitor of cdk4 and tubulin polymerization” (Cell Death & Disease, 2015)
Entries after “also recorded” stand apart in the source; their conditions may differ.

Tests used:
[1] = system: panel of 58 representative kinases; assay: Kinase profiling, panel of 58 representative kinases; assay type: biochemical; conditions: at 10 μM
Description: The in vitro kinase assays for testing against Cdk4-cyclin D1, Cdk2-cyclin A, Cdk1-cyclin B1 and Cdk9-cyclin T1 were performed in-house. The methodology and results have been reported previously.[20], [30], [31], [32], [45] The kinase profiling for 58 representative kinases was carrried out commercially at Millipore Bioscience Division, Livingston, UK.

[2] = system: LS174T (colorectal carcinoma; p53+, pRb+); assay: Cell proliferation (MTT) assay, LS174T; assay type: cell-based; conditions: Homo sapiens, 48 h, read-out: IC50 cell growth inhibition, LS174T
Description: (§1) All 10 human cancer cell lines were maintained at 37 °C in 5% CO2 in RPMI-1640 medium, supplemented with 10% foetal calf serum and 100 μg/ml normocin. The 10 cancer cell lines used for screening were all obtained from ATCC (Manassas, VA, USA); they were the NSCLC (a form of cancer that is resistant to chemotherapy) lines: NCI-H460 (pRb^+, p53^+), A549 (pRb^+, p53^+), Calu-1 (pRb^+, p53-null), NCI-H1299 (pRb^+, p53-null), NCI-H358 (pRb-null, p53-null); the colon cancer line LS174T (pRb^+, p53^+); the prostate cancer line PC-3 (pRb^+, p53-null); the pancreatic cancer line MiaPaca (pRb^+, p53-mutant). The genotypes within brackets indicate the status of the tumour suppressor proteins pRb and p53. The mouse embryonic normal hepatic cell line (BNL CL2) and its SV40 large T-antigen-transformed counterpart cell line (BNL SV A.8) were also purchased from ATCC. The large T-antigen inactivates the tumour suppressor proteins p53 and pRb. The detailed procedure of cell proliferation (MTT) assay and IC50 determination was described previously.[32]

A549 (NSCLC; p53+, pRb+) = assay: Cell proliferation (MTT) assay, A549; assay type: cell-based; conditions: Homo sapiens, 48 h, read-out: IC50 cell growth inhibition, A549
Description: as §1

[3] = system: several human cancer cells; assay: Growth inhibition of several human cancer cells; assay type: cell-based
Description: as §1

NCI-H1299 cells = assay: Flow cytometric cell cycle analysis, NCI-H1299; assay type: cell-based, human; conditions: NCI-H1299, IC50 concentration, 24 h
Description: (§2) The untreated (control) and treated (with test compounds) cells were harvested by trypsinization, washed once with PBS and then fixed in 70% chilled (−20 °C) ethanol for minimum 1 h. After the fixation step, cells were centrifuged for 5 min at 3000 × g at room temperature, and the pellet was suspended in PBS containing 50 μg/ml propidium iodide (Sigma-Aldrich, Dorset, UK; cat. no. P-4170) and 0.5 mg/ml DNase-free ribonuclease (Sigma-Aldrich; cat. no. R-5503). The cells were stained for 1 h in the dark at 4 °C. Cell cycle analysis was performed on the Beckman Coulter (Epics Altra) fluorescence-activated cell sorter (Beckman Coulter UK Ltd, Buckinghamshire, UK). To gate all the events that represent single cells, and not cell doublets or cell clumps, the following analyses were performed on the samples. Cytograms of propidium iodide fluorescence peak signal versus integrated fluorescence or the linear signal were plotted. All data points on the straight line were isolated in a single gate and the gated data was further used for plotting a histogram that represents a complete cell cycle. The total number of events was not allowed to exceed 200 events per s. Data acquisition was stopped after a minimum of 10 000 events had been collected.

NCI-H358 cells = assay: Flow cytometric cell cycle analysis, synchronized NCI-H358; assay type: cell-based, human; conditions: NCI-H358 after nocodazole block, released in presence of BPT, within 12 h
Description: as §2

Calu-1 cells = assay: Cell cycle analysis, Calu-1; assay type: cell-based, human; conditions: p53-null, non-functional mitotic-spindle checkpoint
Description: as §2
Fig. S4. Cell cycle analysis of calu-1 cells upon BPT treatment. […]

MIAPaCa cells = assay: Western blot of cell cycle proteins in mutant p53 cells; assay type: cell-based, human; conditions: data not shown
Description: A549, LS174T and MiaPaCa cells were seeded in 25 cm^2 tissue culture flasks in the complete growth medium. […] Cells were harvested by trypsinization, washed in ice-cold PBS and then lysed in buffer (Sigma-Aldrich; cat. no. C-2978) containing protease inhibitor cocktail (Sigma-Aldrich; cat. no. P8340). The lysates were centrifuged at 14 000 r.p.m. (revolutions per minute) for 10 min at 4 °C and the total protein concentrations were estimated in the clear supernatants using the Bradford method. Equal amounts of protein (40 μg) were loaded and electrophoresed on 10% SDS-polyacrylamide gels and blotted on Immobilon-P Transfer Membrane (Millipore; cat. no.IPVH20200). The blots were probed with respective primary antibodies (at 4 °C, overnight) at the following dilutions: cdc2 (New England Biolabs, Hitchin, UK; cat. no. 9110) at 1 : 1000 to detect Cdk1; cyclin B1 (CRUK, London, UK; cat. no. V152) at 1 : 1500 dilution to detect cyclin B1; Pab 1801 (Santa Cruz Biotechnology, Heidelberg, Germany; cat. no. sc-98) at 1 : 500 dilution to detect p53; N-20 (Santa Cruz Biotechnology; cat. no. sc-469) at 1 : 500 dilution to detect p21; C-19 (Santa Cruz Biotechnology; cat. no. sc-528) at 1 : 250 dilution to detect p27; AC-40 (Sigma-Aldrich; cat. no. A4700) at 1 : 2000 dilution to detect actin. […]

MTD finding study = assay type: in vivo; conditions: mice
Description: Swiss-albino mice were used to determine the MTD for the compound. BPT was weighed and mixed with 0.5% (w/v) carboxymethylcellulose and triturated with Tween-20 (secundum artum) with gradual addition of water to make up the final concentration. Care was taken not to exceed >0.25% of Tween-20 in the final formulation of the BPT. In this study, six animals per group were administered with BPT at different doses for 5 days (Q1D × 5) via intraperitoneal route. Animals were monitored for weight loss, morbidity symptoms and mortality up to 2 weeks by the end of treatment. Significant weight loss was considered when mean animal weight dropped by ⩾10% and was considered highly significant when the drop was ⩾20%.

O=C(c1ccccc1-c1ccccc1)N1CCc2c([nH]c3ccccc23)C1 [BPT, 2-(biphenyl-2-carbonyl)-2,3,4,9-tetrahydro-1H-pyrido[3,4-b]indole]
inhibition of other kinases (panel of 58) [1]: no inhibition against other kinases; also recorded: does not inhibit any kinase to any appreciable degree | IC50 [2]: 850 nM | IC50 (A549 (NSCLC; p53+, pRb+)): 920 nM | IC50 [3]: < 1000 nM | cells in G2/M (NCI-H1299 cells): 50% | G0/G1- and S-phase cells entering the G2/M phase (NCI-H358 cells): > 50% | phase of cell cycle block in Calu-1 cells (Calu-1 cells): blocks only at the G0/G1 phase | cyclin B1 and Cdk1 levels (MIAPaCa cells): elevated | p53, p21 and p27 levels (MIAPaCa cells): remained unchanged | maximum-tolerated dose (MTD finding study): 1000 mg/kg
